How the values were obtained:
[1] = test system: rat brain (BBB); experiment: Evans Blue accumulation in rat brain after alternating electric fields; assay type: in vivo
From the text: A set of in vivo experiments on rats was also run to quantify the increase in vessel permeability caused by exposure to the alternating electric fields. These experiments used Evans Blue (EB) dye, which is an azo dye that has a very high affinity for serum albumin (molecule size ˜69 kDa). Because of its large molecule size, serum albumin will ordinarily not be able to get past the BBB.
This was accomplished by shaving each rat's head, positioning a first pair of capacitively coupled electrodes on the top and bottom of the rat's head, and positioning a second pair of capacitively coupled electrodes on the left and right sides of the rat's head. A 100 kHz AC voltage was then applied between the top and bottom electrodes for 1 second, followed by a 100 kHz AC voltage applied between the right and left electrodes for 1 second, in a repeating sequence.
Under the conditions indicated in Table 1 and for the times indicated on Table 1, EB was injected intravenously into the tail vein under anesthesia (Once injected, EB immediately binds to Albumin), and the EB was allowed to circulate for 2 hours in all cases. The following steps were then performed: (a) intracardiac perfusion with saline; (b) brains are sliced in four pieces with a brain slicer; (c) pieces were photographed to localize staining and weighted; (d) EB extraction after tissue homogenization with TCA 50% (1:3) and centrifuge and (e) EB quantification at 610 nm. Results are given as μg EB per g tissue.
During the experiment, two animals from group 2 and one animal from group 4 were excluded (disrupted treatment, failure to inject EB into the tail vein). There were no differences between the animals treated with alternating electric fields (groups 1 and 2) and therefore these animals were grouped together. Similarly, there were no differences between sham heat and control animals (groups 3 and 4) and therefore these animals were grouped together.
EB accumulation in these four specific sections was then measured. In addition, a computer simulation was performed to determine the field strength in each of these four sections. […]

[2] = test system: rat brain (BBB); experiment: Dynamic Contrast Enhanced MRI (DCE-MRI) of rat brain; assay type: in vivo
Description: Yet another set of in vivo experiments was performed using Dynamic Contrast Enhanced MRI (DCE-MRI) with intravenous injection of Gadolinium contrast agent (Gd-DTPA, Magnetol, MW 547). In these experiments, test rats were treated with 100 kHz alternating electric fields for 72 h, and control rats were not treated with alternating electric fields for the same period of time. After this 72 h period, the alternating electric field was turned off, the rats were anesthetized, and a series of 60 T1w MRI scans (each of the scans having a duration of 28 seconds) was acquired. The gadolinium contrast agent was injected into the rat's tail vein during the 7th of these 60 scans.
The image analysis for each rat included (1) determining a baseline for each voxel by calculating the mean of the first six T1w MRI scans for each voxel (i.e., the scans prior to the injection of the gadolinium); (2) computing voxel by voxel, the percent signal change (i.e., gadolinium accumulation) over time relative to the baseline; (3) segmenting the brain into anterior, middle, and posterior segments; (4) generating for each of the three segments the mean percent signal change with respect to the baseline over all the voxels in the respective segment and then (5) averaging 4 consecutive time points (i.e. 4 scans) together. Finally, the data from all of the rats within any given group were averaged together. […]

Row | SMILES | average EB accumulation in the rat brain, averaged over all four sections 1-4 ([1]; 100 kHz fields 72 h vs control, p<0.05) | EB accumulation in brain sections 1, 2 (frontal cerebrum) ([1]; 100 kHz fields 72 h vs sham heat/control, EB i.v., 2 h circulation, highest field strength) | EB accumulation in posterior brain sections (3, 4) ([1]; 100 kHz fields 72 h vs sham heat/control, EB i.v., 2 h circulation, lower field strength) | contrast agent accumulation in the brain tissue (percent signal change) ([2]; 100 kHz fields 72 h (n=6) vs control rats (n=3), i.v.) | contrast agent accumulation in the brain tissue (percent signal change) ([2]; 100 kHz fields 72 h followed by 96 hours without fields (n=7) vs control+96 h (n=3))
1 | Cc1cc(-c2ccc(/N=N/c3ccc4c(S(=O)(=O)O)cc(S(=O)(=O)O)c(N)c4c3O)c(C)c2)ccc1/N=N/c1ccc2c(S(=O)(=O)O)cc(S(=O)(=O)O)c(N)c2c1O [EB, Evans Blue] | higher accumulation | statistically significant increase | smaller increase (that was not statistically significant) | – | –
2 | O=C([O-])CN(CCN(CC(=O)[O-])CC(=O)O)CCN(CC(=O)[O-])CC(=O)O.[Gd+3] [contrast agent, Gd-DTPA] | – | – | – | significantly higher | not significantly different
